Assay results as given in the NIST ThermoML archive (doi:10.1016/j.jct.2012.04.007).

Legend:
[1] = xn = mol fraction of the nth substance listed; conditions: 101 kPa, Liquid, Vibrating tube method
[2] = 101.33 kPa, Liquid, Vibrating tube method

[2H]O[2H] [water-d2] + CN(C)C=O
mass density [kg/m3], [1]
Conditions	278.15 K	288.15 K	298.15 K	308.15 K	318.15 K
x1 = 0.0002028	962.92	953.41	943.88	934.31	924.7
x1 = 0.0009641	962.98	953.47	943.94	934.37	924.75
x1 = 0.00191	963.05	953.54	944.01	934.44	924.82
x1 = 0.002862	963.12	953.61	944.08	934.5	924.89
x1 = 0.003812	963.19	953.68	944.15	934.57	924.96
x1 = 0.004846	963.27	953.76	944.23	934.65	925.03
x1 = 0.005839	963.35	953.84	944.3	934.72	925.1
x1 = 0.006984	963.44	953.92	944.39	934.81	925.19
x1 = 0.008587	963.56	954.05	944.51	934.93	925.31
x1 = 0.01049	963.71	954.19	944.65	935.07	925.44
x1 = 0.012	963.83	954.31	944.77	935.18	925.55

[2H]O[2H] [water-d2] + CC(=O)N(C)C
mass density [kg/m3], [1]
Conditions	278.15 K	288.15 K	298.15 K	308.15 K	318.15 K
x1 = 0.0002901	954.8	945.61	936.4	927.16	917.88
x1 = 0.0009284	954.85	945.66	936.45	927.21	917.93
x1 = 0.00199	954.93	945.74	936.53	927.29	918
x1 = 0.002684	954.98	945.79	936.58	927.34	918.05
x1 = 0.003434	955.05	945.85	936.64	927.39	918.11
x1 = 0.004789	955.15	945.96	936.74	927.49	918.21
x1 = 0.005915	955.24	946.05	936.83	927.58	918.28
x1 = 0.007384	955.36	946.16	936.94	927.69	918.39
x1 = 0.008715	955.46	946.26	937.04	927.79	918.49
x1 = 0.01024	955.59	946.38	937.16	927.9	918.6
x1 = 0.01198	955.72	946.52	937.29	928.03	918.73

CC(=O)N(C)C [N,N-dimethylethanamide]
[2]
Conditions	mass density [kg/m3]
278.15 K	954.78
288.15 K	945.591
298.15 K	936.382
308.15 K	927.142
318.15 K	917.863

CC(=O)N(C)C [N,N-dimethylethanamide] + O
mass density [kg/m3], [1]
Conditions	278.15 K	288.15 K	298.15 K	308.15 K	318.15 K
x2 = 0.0002901	954.8	945.61	936.4	927.16	917.88
x2 = 0.001042	954.84	945.65	936.44	927.2	917.92
x2 = 0.001656	954.87	945.68	936.47	927.23	917.95
x2 = 0.002777	954.93	945.74	936.53	927.28	918
x2 = 0.003783	954.99	945.8	936.58	927.34	918.05
x2 = 0.004833	955.05	945.85	936.64	927.39	918.1
x2 = 0.005867	955.1	945.91	936.69	927.44	918.16
x2 = 0.007593	955.19	946	936.78	927.53	918.24
x2 = 0.008945	955.27	946.07	936.85	927.6	918.31
x2 = 0.01063	955.36	946.16	936.94	927.69	918.39
x2 = 0.01192	955.43	946.23	937.01	927.75	918.46

CN(C)C=O [dimethylformamide] + O
mass density [kg/m3], [1]
Conditions	278.15 K	288.15 K	298.15 K	308.15 K	318.15 K
x2 = 0.0002028	962.91	953.41	943.88	934.31	924.69
x2 = 0.0008875	962.94	953.44	943.91	934.34	924.72
x2 = 0.001707	962.98	953.48	943.95	934.38	924.76
x2 = 0.002654	963.03	953.53	944	934.42	924.8
x2 = 0.003456	963.06	953.57	944.03	934.46	924.84
x2 = 0.00465	963.12	953.62	944.09	934.52	924.89
x2 = 0.006106	963.19	953.69	944.16	934.58	924.96
x2 = 0.007804	963.28	953.77	944.24	934.66	925.04
x2 = 0.009189	963.34	953.84	944.3	934.73	925.1
x2 = 0.01051	963.4	953.9	944.37	934.79	925.16
x2 = 0.01182	963.47	953.97	944.43	934.85	925.22

CN(C)C=O [dimethylformamide]
[2]
Conditions	mass density [kg/m3]
278.15 K	962.901
288.15 K	953.398
298.15 K	943.869
308.15 K	934.298
318.15 K	924.683
